# Source: patent US20220401483A1, “COMBINATION OF A T CELL THERAPY AND (S)-3-[4-(4-MORPHOLIN-4-YLMETHYL-BENZYLOXY)-L-OXO-L,3-DIHYDRO-ISOINDOL-2-YL]-PIPERIDINE-2,6-DIONE” (Juno Therapeutics, Inc., priority 2019, published 2022)
# What was measured:
# Aiolos = assay: Intracellular Aiolos expression in stimulated anti-CD19 CAR-expressing T cells (flow cytometry MFI); type: cell-based, human
# Experimental: (§1) T cell compositions containing anti-CD19 CAR-expressing T cells were generated from leukapheresis samples from three healthy human adult donors by a process including immunoaffinity-based selection of T cells (including CD4+ and CD8+ cells) from the samples, resulting in two compositions, enriched for CD8+ and CD4+ cells, respectively. The cells were incubated in the presence of (S)-3-[4-(4-morpholin-4-ylmethyl-benzyloxy)-1-oxo-1,3-dihydro-isoindol-2-yl]-piperidine-2,6-dione (Compound A) or 3-(5-amino-2-methyl-4-oxo-4H-quinazolin-3-yl)-piperidine-2,6-dione (Compound B), and expression of the transcription factors Ikaros and Aiolos was assessed. Cells of the enriched CD4+ and CD8+ compositions were separately activated with anti-CD3/anti-CD28 beads and subjected to lentiviral transduction with a vector encoding an anti-CD19 CAR. The anti-CD19 CAR contained an anti-CD19 scFv derived from a murine antibody (variable region derived from FMC63), an immunoglobulin-derived spacer, a transmembrane domain derived from CD28, a costimulatory region derived from 4-1BB, and a CD3-zeta intracellular signaling domain. The expression construct in the viral vector further contained sequences encoding a truncated receptor, which served as a surrogate marker for CAR expression, which was separated from the CAR sequence by a T2A ribosome skip sequence. Transduced populations then were separately incubated in the presence of stimulating reagents for cell expansion. Expanded CD8+ and CD4+ cells were formulated and cryopreserved separately and stored. The cryopreserved CD4+ and CD8+ anti-CD19 CAR-expressing cells from each donor were thawed, and combined at approximately a 1:1 CAR+CD4+:CD8+ ratio prior to use. Approximately 2.5×10^5 cells of the generated CAR+ T cell composition were stimulated overnight with 1 μg/ml of a CAR-specific anti-idiotypic antibody in the presence of 3-(5-amino-2-methyl-4-oxo-4H-quinazolin-3-yl)-piperidine-2,6-dione (Compound B) or (S)-3-[4-(4-morpholin-4-ylmethyl-benzyloxy)-1-oxo-1,3-dihydro-isoindol-2-yl]-piperidine-2,6-dione (Compound A) at concentrations ranging from 10 to 10000 nM or a vehicle control overnight at 37° C., 5% C02. Following overnight incubation, anti-CD19 CAR-expressing T cells were stained with antibodies and analyzed by flow cytometry to assess intracellular levels of Ikaros and Aiolos in CD4+ CAR+ or CD8+ CAR+ cells, as measured by median fluorescence intensity (MFI). Median fluorescence intensity (MFI) values for Ikaros and Aiolos were normalized and calculated as a percentage relative to vehicle control. […] The EC50 for reducing Aiolos and Ikaros expression was calculated as determined from the concentration of the inhibitor that reduced Aiolos or Ikaros MFI to 50% of its maximal MFI in the absence of the inhibitor.
# Ikaros = assay: Intracellular Ikaros expression in stimulated anti-CD19 CAR-expressing T cells (flow cytometry MFI); type: cell-based, human
# Experimental: as §1
# [1] = test system: K562.CD19, Raji, Granta-519 cells; assay: Cytolytic activity of CAR T cells after chronic stimulation with concurrent treatment, rechallenge with CD19+ tumor cells; type: cell-based, human; conditions: 0.001 μM or 0.01 μM, E:T 1:1, vs control
# Experimental: Anti-CD19 CAR-expressing T cells were produced substantially as described in Example 1. To subject cells to chronic stimulation conditions, the CAR+ T cells were stimulated with 30 μg/mL plate-bound anti-idiotypic (anti-ID) antibody (see e.g. WO2018/023100) for 6 days in the presence of (S)-3-[4-(4-morpholin-4-ylmethyl-benzyloxy)-1-oxo-1,3-dihydro-isoindol-2-yl]-piperidine-2,6-dione (Compound A) or a vehicle control, to induce chronic stimulation. After the 6-day culture period, the anti-CD19 CAR-expressing T cells were removed from culture and incubated with K562 cells transduced with CD19 (K562.CD19), Raji tumor cells, and Granta-519 tumor cells (to rechallenge the CAR-T cells) at an effector to target ratio of 2.5:1 unless otherwise indicated, in the presence of Compound A, at concentrations ranging from 0.001 μM to 10 μM, or vehicle control for up to 10 days. […] Cells were assessed at various times for cytolytic function, CAR T cell number and cytokine production.
# CAR T cells that had been stimulated for 6 days with anti-ID concurrently in the presence of Compound A (0.001 μM or 0.01 μM) were washed free of compound and co-cultured with CD19+ tumor cells at an effector to target (E:T) ratio of 1:1 in the absence of Compound A. The assessed CD19+ tumor cells included K562 cells transduced with CD19 (K562.CD19), Raji cells, or Granta-519 cells.
# [2] = test system: A549.CD19 tumor spheroids; assay: A549.CD19 tumor spheroid model, rescue treatment of chronically stimulated CAR T cells; type: cell-based, human
# Experimental: An A549.CD19 tumor spheroid model was further used to elucidate the T cell modulatory activity of the compounds. A549.CD19 tumor spheroid growth is insensitive to monotherapy treatment with the immunomodulatory compounds. CAR T cells that had been stimulated for 6 days with anti-ID were co-cultured by incubation with A549.CD19 tumor spheroids, in the presence of presence of Compound A (0.001 μM, 0.01 μM, or 0.1 μM). Averaged measurement of tumor spheroid size at Day 9 following co-culture with CAR-T cells was assessed. […] The number of CAR T cells in co-cultures with tumor spheroids, measured at day 5, were increased with treatment with Compound A (FIG. 5B).
# Cytokines (IFNγ, IL-2 and TNFalpha) were measured from supernatant of the chronically stimulated CAR T cells above that had been co-cultured for 5 days with CD19 tumor spheroids. The log 2 fold change compared to control cells (chronically stimulated cells that had not been concurrently treated with immunomodulatory compound) is shown in FIG. 5E.
# anti-CD19 CAR T cells = assay: Intracellular cytokine staining of acutely stimulated anti-CD19 CAR T cells; type: cell-based, human; conditions: 3 days, 30 μg/mL agonistic anti-CAR antibody
# Experimental: Effector and proliferative activity of anti-CD19 CAR T cells were assessed following incubation in the presence of absence of Compound A. Anti-CD19 CAR+ T cell compositions were generated as described in Example 1.
# The anti-CD19 CAR T cells were stimulated with agonistic antibody against the CAR (30 μg/mL; WO2018/023100) while being treated with vehicle control (ctrl) or Compound A. Intracellular cytokines were measured using intracellular cytokine staining (ICS) after 3 days of treatment. FIG. 7A show a heatmap of cytokine expression as depicted based on log 2-fold change in mean fluorescence intensity (MFI) of cytokines relative to vehicle control in culture.
# Cmax in healthy subjects = conditions: human, in vivo, doses of 0.3 mg and 1.0 mg
# [3] = overnight incubation, 1 μg/ml anti-idiotypic antibody, average of donors (range, 95% confidence interval)
structure (smiles),measurement,setting,value
"O=C1CC[C@H](N2Cc3c(OCc4ccc(CN5CCOCC5)cc4)cccc3C2=O)C(=O)N1 [Compound A, (S)-3-[4-(4-morpholin-4-ylmethyl-benzyloxy)-1-oxo-1,3-dihydro-isoindol-2-yl]-piperidine-2,6-dione]",intracellular Aiolos expression,"Aiolos; 10 to 10000 nM, overnight",concentration dependent decrease
same,potency relative to Compound B in degradation of Ikaros and Aiolos,Aiolos; CAR-expressing T cells,10-20 fold
same,EC50,Aiolos; [3],2.5 nM
same,intracellular Ikaros expression,"Ikaros; 10 to 10000 nM, overnight",concentration dependent decrease
same,EC50,Ikaros; [3],4 nM
same,cytolytic activity (tumor cell number over time),[1],improved
same,number of CAR T cells in co-cultures with tumor spheroids,"[2]; day 5, 0.01 μM or 0.1 μM",increased
same,"CAR T cell cytolytic function, A549.CD19 spheroid growth","[2]; rescue, 0.001, 0.01 or 0.1 μM, Day 9",improved
same,IFNγ in co-culture supernatant,"[2]; rescue, 5 days co-culture with spheroids",statistically significant increase
same,"effector cytokine production (ICS, MFI vs vehicle)",anti-CD19 CAR T cells,potentiates
same,Cmax,Cmax in healthy subjects,2.41 to 11.8 nM
